For data set [1], the system named is human cardiac myocytes (HCM). The experiment in a line: NECA-induced IL-6 release from human cardiac myocytes (Example 7). Format: cell-based. As to conditions: for effect of NECA on HCM (IL-6 release): NECA in combination with antagonist. The protocol: This example uses human cardiac myocytes to test two other A2B adenosine receptor antagonists on their effect on NECA-induced IL-6 release.
Human cardiac myocytes (HCM) were treated with NECA alone, or in combination with Compound A, Compound B (N-[5-(1-cyclopropyl-2,6-dioxo-3-propyl-2,3,6,7-tetrahydro-1H-purin-8-yl)-pyridin-2-yl]-N-ethyl-nicotinamide, also known as ATL-801) or Compound C (2-(4-benzyloxy-phenyl)-N-[5-(2,6-dioxo-1,3-dipropyl-2,3,6,7-tetrahydro-1H-purin-8-yl)-1-methyl-1H-pyrazol-3-yl]-acetamide).

Data set [2] has as its system rats with MI (25 minutes coronary occlusion followed by reperfusion). The experiment in a line: Rat model of post-MI remodeling: serial echocardiograms (Example 6). Format: in vivo. The protocol:
The effects of Compound A in a rat model of post-MI remodeling and VT were determined. MI was caused by 25 minutes occlusion at the left anterior descending coronary ligation followed by reperfusion. One week later, rats were administered either vehicle or Compound A (100 mg/kg) once daily by oral gavage. Serial echocardiograms (ECHOs) to measure LV ejection fraction (LVEF), stroke volume and LV end systolic volume (LVESV) were obtained at baseline, 1 week and 5 week post-MI. Electrophysiological studies, optical mapping, histology and biomarker analysis were conducted at 5 week post-MI.

Data set [3] deals with primary human cardiac fibroblasts (HCF). The experiment in a line: NECA-induced release of IL-6, collagen, ST-2, PAPPA and expression of fibrotic markers in human cardiac fibroblasts (Example 2). Format: cell-based. The protocol: Real-time RT-PCR was performed as published using Stratagene PCR equipment (La Jolla, Calif.). Zhong H., et al., “A2B adenosine receptors increase cytokine release by bronchial smooth muscle cells,” American Journal of Respiratory Cell and Molecular Biology, 30(1): 118-125 (2004).
Expression of AdoR, α-smooth muscle actin and α-1 pro-collagen was determined using real-time RT-PCR. The concentration of IL-6, soluble ST-2 and PAPPA (Pregnancy-associated plasma protein A) in the cell supernatants were measured using ELISA, and the concentration of soluble collagen were determined using Sircol™ collagen assay.

“Also recorded” adds a separate entry of the source.

Four compounds from patent US20120258974A1, “USE OF A2B ADENOSINE RECEPTOR ANTAGONISTS FOR TREATING HEART FAILURE AND ARRHYTHMIA IN POST-MYOCARDIAL INFARCTION PATIENTS” (GILEAD SCIENCES, INC., priority 2011, published 2012) can be followed below.

On to `CCCn1c(=O)c2[nH]c(-c3cc(NC(=O)Cc4ccc(OCc5ccccc5)cc4)nn3C)nc2n(CCC)c1=O` [Compound C], for which the “effect of NECA on HCM (IL-6 release)” value in data set [1] was “completely abolished”.

Take `Cc1ccc(=O)n(-c2ccccc2)c1` [pirfenidone, reference compound]: the “reduction of LVEF” value in data set [2] (post-MI, Example 6 and FIG. 12B) is listed as “only slowed”. Moreover, the “LVESV (so in the source): increase and further reduction” value in data set [2] (rat post-MI, comparison with Compound A, FIG. 12B) is given as “did not increase; also recorded: only slightly inhibited”.

Turning to `CCCn1c(=O)n(C2CC2)c(=O)c2[nH]c(-c3ccc(N(CC)C(=O)c4cccnc4)nc3)nc21` [Compound B, N-[5-(1-cyclopropyl-2,6-dioxo-3-propyl-2,3,6,7-tetrahydro-1H-purin-8-yl)-pyridin-2-yl]-N-ethyl-nicotinamide], the “effect of NECA on HCM (IL-6 release)” value in data set [1] is “completely abolished”.

In the case of N-ethylcarboxamide adenosine [NECA], the “soluble collagen concentration after stimulation” value in data set [3] (NECA 10 μM, basal 3.4±0.2) came out at 6.0 ± 0.4 µg/mL. For the same compound, the “production of collagen, fold induction” value in data set [3] (NECA 10 μM, p<0.05) is given as 1.8±0.1 fold. Also, in data set [3] (NECA 10 μM, real-time RT-PCR), the “expression of α-1 pro-collagen” value is recorded as “increased” and the “expression of α-smooth muscle actin” value is “increased”. Also, in data set [3] (basal 1.4±0.5), the “PAPPA concentration after stimulation” value came to 6.2 ± 0.8 ng/mL. The “soluble ST-2 concentration after stimulation” value in data set [3] (basal 1.5±0.1) amounted to 2.6 ± 0.1 ng/mL. Moreover, the “release of IL-6, maximal increase over the basal level” value in data set [3] (concentration-dependent) worked out at 2.4±0.1 fold. Moreover, in data set [3] (p<0.05), the “release of PAPPA, fold induction” value was found to be 4.4±0.6 fold and the “release of soluble ST-2, fold induction” value worked out at 1.7±0.1 fold. Also, the “IL-6 release from human cardiac myocytes” value in data set [1] (NECA alone) is reported as “significantly increased”.
